Values after ≈ are worked out from the molar mass of the structure shown.

One assay has as its target α-glucosidase (α-GLU). The assay can be described thus: PNPG hydrolysis assay with commercial enzyme, absorbance at […] nm. Format: biochemical.
For the next assay, the target named is α-amylase (α-AMY). Briefly: starch hydrolysis DNS assay with commercial enzyme, absorbance at […] nm. Format: biochemical.

As usually defined, the IC50 is the concentration at which inhibition is half-maximal. As for `O=C1c2c(O)cc(O)cc2O[C@H](c2cc(O)c(O)c(O)c2)[C@H]1O` [DHM, Dihydromyricetin], the values for the IC50 against α-glucosidase (α-GLU) and at α-amylase (α-AMY) were 96.12 µg/mL (≈ 0.3 mM) and 4614 µg/mL (≈ 14.4 mM), respectively.

These data come from PMC12111771, “Structural Characterization and Bioactivity Evaluation of Selenium-Modified Dihydromyricetin from Vine Tea” (Foods, 2025).
